pIC50: −log10 of the molar value.
Target: T1, CENP-E (Homo sapiens, UniProt Q02224)
T1 construct: gene CENPE; motor domain
T1 sequence (Q02224 6-329 limits assumed): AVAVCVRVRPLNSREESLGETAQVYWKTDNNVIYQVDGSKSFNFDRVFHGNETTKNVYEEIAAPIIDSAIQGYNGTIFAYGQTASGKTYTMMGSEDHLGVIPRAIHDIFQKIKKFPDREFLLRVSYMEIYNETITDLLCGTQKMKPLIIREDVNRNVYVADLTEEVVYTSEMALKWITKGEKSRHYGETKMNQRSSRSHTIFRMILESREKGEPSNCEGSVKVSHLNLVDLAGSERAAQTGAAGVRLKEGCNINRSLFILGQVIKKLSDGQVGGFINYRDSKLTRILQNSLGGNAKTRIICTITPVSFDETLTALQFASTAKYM
Test: ATPase activity assay of the CENP-E motor domain
Type: biochemical

pIC50: 8.66
SMILES: COc1cccc2nc(C(=O)N(CCN(C)C)C3CS(=O)(=O)c4c3ccc(C(F)(F)F)c4C#N)c(-c3ccc(F)c(C)c3)n12 (single isomer, unassigned; (+)) [Cmpd-A, (+)-N-[7-cyano-1,1-dioxido-6-(trifluoromethyl)-2,3-dihydro-1-benzothiophen-3-yl]-N-[2-(dimethylamino)ethyl]-3-(4-fluoro-3-methylphenyl)-5-methoxyimidazo[1,2-a]pyridine-2-carboxamide]

From publication PMC4506520, “Aneuploidy generates proteotoxic stress and DNA damage concurrently with p53-mediated post-mitotic apoptosis in SAC-impaired cells” (Nature Communications, 2015)
